Tests used:
[1] = test system: phosphorylated peptides containing a minimal CDK consensus motif (SP or TP) in MCF7 cells; experiment: Phospho-proteomics (mass spectrometry) of CDK substrate phosphorylation after PF3600; format: cell-based, Homo sapiens
Protocol: CDK2 substrate dynamics were globally assessed through phospho-proteomics.
Phospho-peptide enrichment was performed as previously described (Lapek et al., 2017b). Lyophilized phospho-peptides were then TMT-labeled and fractionated by reverse phase basic pH fractionation and fractions combined as previously described (Edwards and Haas, 2016). Fractions were lyophilized and stored at […] until MS analysis. For LC-MS2/MS3 analysis, samples were reconstituted in 10 μL of 5% acetonitrile in 5% formic acid and 8 μL of each fraction was injected on the Orbitrap Fusion Lumos for analysis.
Peptides were eluted on a 165-minute gradient of 7-32% solvent B (80% acetonitrile in 0.1% formic acid) at 300 nL/min on a PepMap RSLC C18 column (2 μm, 100 Å, 75 μm×50 cm) heated to 60° C. Spectra were acquired in Top Speed mode, with a 5 second cycle. MS1 data were collected in the Orbitrap at 60000 resolution across a range of 500-1500 m/z. An automatic gain control (AGC) target of 2×10^5 was used with a maximum injection time of 100 ms. MS2 data were acquired in the ion trap with a rapid scan rate, maximum injection time of 70 ms, and an AGC target of 2×10^4. The quadrupole was used for isolation, with an isolation window of 0.5 m/z. […]
Data were normalized in a multistep process as previously described (Lapek et al., 2017a). […] All phospho data was processed and analyzed at the peptide level.

[2] = Half-life of PF3600 in cells; format: in vitro ADME

- half-life [2]: ~30 h
SMILES: C[C@@]1(O)CCC[C@H]1n1c(=O)c(C(F)F)cc2cnc(NC3CCN(S(C)(=O)=O)CC3)nc21 [PF3600, 6-(difluoromethyl)-8-[(1R,2R)-2-hydroxy-2-methylcyclopentyl]-2-{[1-(methylsulfonyl)-piperidin-4-yl]amino}pyrido[2,3-d]pyrimidin-7(8H)-one]
- number of SP/TP peptides whose phosphorylation was significantly reduced (p<0.05) ([1]; 25 nM PF3600, 1 hr): 40 peptides
- fate of the reduced phosphopeptides at 24 hr ([1]; 25 nM PF3600, 24 hr): vast majority of these rebounded to control levels

— patent publication US20230158034A1, “CO-TREATMENT WITH CDK4/6 AND CDK2 INHIBITORS TO SUPPRESS TUMOR ADAPTATION TO CDK2 INHIBITORS” (Pfizer Inc., priority 2020, published 2023)
